Measurements published in PubChem BioAssay (NCI).
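1) Cells in 96-well plates. 2) Compound, 48 h, 5 concentrations. 3) Linear interpolation between surrounding doses. 4) Unreached endpoint = highest concentration. TGI marks complete inhibition of growth.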 Where a SMILES comes first, the peptide text is derived from it. Bridges are numbered along the chain shown (N, C = ends). [ ]: non-standard residue; d: D form. The star is where a group is joined. Cbz = O=C(OCc1ccccc1)*; Aib = CC(C)(N)C(=O)O; OBn = c1ccc(CO*)cc1; βAla = NCCC(=O)O

Assays:
Test in all cases: inhibition of tumour cell growth, NCI panel, 48 h
[1] = system: OVCAR-5 ovarian
[2] = system: DLD-1 colon
[3] = system: DMS 114 small cell lung
[4] = system: DMS 273 small cell lung
[5] = system: HOP-18 NSCLC
[6] = system: KM20L2 colon
[7] = system: LXFL 529 NSCLC
[8] = system: M19-MEL melanoma
[9] = system: RXF-631 renal
[10] = system: SNB-78 CNS
[11] = system: XF 498 CNS

Row | Structure (SMILES) | TGI [1] | other results
1 | CCN(CC)Cc1cc(Nc2ccnc3ccc4c(nnn4C)c23)ccc1O | 33.9 µM | –
2 | S=C1Cc2c([nH]c3ccccc23)-c2ccccc2N1 | > 100 µM | –
3 | Cn1c(=O)c2c(nc(NCCCCl)n2CC(=O)NCCCCl)n(C)c1=O | > 100 µM | –
4 | O=C(CC(=O)N(C(=O)c1ccccc1)c1ccc(Cl)cc1)N/N=C\c1cc(N=Nc2ccccc2Cl)ccc1O | > 100 µM | –
5 | C=CCN1C(=O)/C(=C/c2ccccc2)NC1=S | > 100 µM | –
6 | CC(=O)NCc1nc(C#N)c(N)o1 | > 100 µM | –
7 | O=C(c1ccccc1)c1c2ccccn2c2cccc[n+]12 | > 100 µM | –
8 | CCCCn1c(C)c(C(=O)OCC)c2cc(OCc3ccc(C(=O)Nn4c(C)ccc4C)cc3)c(Br)cc21 | > 100 µM | –
9 | COc1ccccc1N1C(=O)/C(=C\c2cccc(Oc3ccccc3)c2)SC1c1ccccc1 (stereo unspecified) | > 100 µM | –
10 | O=C(c1ccc(Cl)cc1Cl)N(C(=O)N1CCCCC1)c1ccccc1 | > 100 µM | –
11 | CC1CN=C(Nc2ccc(S(N)(=O)=O)cc2)S1 (stereo unspecified) | > 100 µM | –
12 | Nc1nc(Cl)cc(NCC2(CO)COC2)n1 | > 100 µM | –
13 | O=C1NNC(=O)C2C3c4ccccc4C(c4ccccc43)C12 (stereo unspecified) | > 100 µM | –
14 | CC1=CC(=O)NP(=O)(Oc2ccc(C)cc2)N1 (stereo unspecified) | > 100 µM | TGI [2]: > 100 µM; TGI [3]: > 100 µM; TGI [4]: > 100 µM; TGI [5]: > 100 µM; TGI [6]: > 100 µM; TGI [7]: > 100 µM; TGI [8]: > 100 µM; TGI [9]: > 100 µM; TGI [10]: > 100 µM; TGI [11]: > 100 µM
15 | Oc1cc(O)c2c(c1)O[C@H](c1cc(O)c(O)c(O)c1)[C@H](O)C2 | 32 µM | –
16 | O=C(CCc1ccc(O)cc1)NCCc1ccc(O)cc1 | > 100 µM | –
17 | CC(=O)c1cccc2c1CC1(C2)Cc2ccc3c(c2C1=O)CCC3 (stereo unspecified) | > 100 µM | –
18 | Cc1ccccc1Nc1cn(COCc2ccccc2)c(=O)[nH]c1=O | > 100 µM | –
19 | O=C(CC(=O)n1nc(-c2ccccc2)c(N=Nc2ccc(Cl)cc2)c1-c1ccccc1)Nc1cccc(Cl)c1 | > 100 µM | –
20 | Nc1ccc(C(=O)Nn2c(-c3ccccc3)nc3ccccc3c2=O)cc1 | > 100 µM | –
21 | O=C(CSc1nnc(Cc2ccccc2)o1)Nc1cccc([N+](=O)[O-])c1 | > 100 µM | TGI [2]: > 100 µM; TGI [3]: > 100 µM; TGI [4]: > 100 µM; TGI [5]: > 100 µM; TGI [6]: > 100 µM; TGI [7]: > 100 µM; TGI [8]: > 100 µM; TGI [10]: > 100 µM
22 | S=C(/N=c1/sc(Nc2ccccc2)nc2sc3c(c12)CCCC3)Nc1ccccc1 | > 62.5 µM | –

Row | Structure (SMILES) | TGI [1] | other results
23 | O=C(Nc1ccc2nc(-c3ccccc3)cn2c1)Oc1ccccc1 | > 100 µM | –
24 | COc1cc(C2c3cc4c(cc3[C@@H](Nc3ccccc3)C3CO[C@@H](OC)[C@H]23)OCO4)cc(OC)c1O (stereo partly specified) | 23.8 µM | –
25 | CC1(C)NC(=O)C(NC(=O)C(CC(=O)OCc2ccccc2)NC(=O)OCc2ccccc2)CCCCNC(=O)CCNC1=O (stereo unspecified) (Cbz-D(OBn)K[Aib][βAla]; lactam 2-C; configuration not given here) | > 100 µM | –
26 | N#CC1=C(N2CCCC2)NC(=O)CC1=O | > 100 µM | –
27 | CCOC(=O)Cn1sc2ncc([N+](=O)[O-])cc2c1=O | 38 µM | –
28 | CCCN=C(NC(=O)c1ccc(Cl)cc1)SC | > 100 µM | –
29 | O=C1SCC(O)=C1/C=N/Nc1nc2ccccc2o1 | > 100 µM | –
30 | C/C(=N\NC(=S)N1CC2CCC(CC2)C1)c1ccncn1 | 5.44 µM | –
31 | O=C1C(Br)=CC2(C=C1Br)CCN=c1c(O)c3c(c(O)c12)=NC=N3 | 29.4 µM | –
32 | Clc1ccc2c(NCCCCN=Cc3ccccc3)ccnc2c1 | 40.4 µM | –
33 | O=C1CCC(c2ccccc2)C(O)(C(=O)O)C1 (stereo unspecified) | > 100 µM | TGI [2]: > 100 µM; TGI [4]: > 100 µM; TGI [5]: > 100 µM; TGI [6]: > 100 µM; TGI [7]: > 100 µM; TGI [8]: > 100 µM; TGI [9]: > 100 µM; TGI [10]: > 100 µM
34 | CCOC(=O)NC(Nc1ccc(S(=O)(=O)Nc2ncccn2)cc1)(C(=O)OCC)C(F)(F)F (stereo unspecified) | > 100 µM | –
35 | Cc1cc(O)c(/C=N/C(=S)NCCc2ccccc2)c(=O)o1 | > 100 µM | –
36 | CC1=CC(=O)NCCN1C | > 100 µM | TGI [2]: > 100 µM; TGI [3]: > 100 µM; TGI [4]: > 100 µM; TGI [5]: > 100 µM; TGI [6]: > 100 µM; TGI [7]: > 100 µM; TGI [8]: > 100 µM; TGI [10]: > 100 µM; TGI [11]: > 100 µM
37 | Cc1cc(=O)[nH]c(NNC(C#N)c2ccc(O)cc2)n1 (stereo unspecified) | > 100 µM | TGI [2]: > 100 µM; TGI [3]: > 100 µM; TGI [4]: > 100 µM; TGI [5]: > 100 µM; TGI [6]: > 100 µM; TGI [7]: > 100 µM; TGI [8]: > 100 µM; TGI [10]: > 100 µM
38 | Cc1ccc2nc3ccccc3c(C3C4C(=O)N(c5ccc(Br)cc5Cl)C(=O)C4ON3C(C(N)=O)c3ccccc3)c2c1 (stereo unspecified) | > 25 µM | –
39 | CCOC(=O)c1c(SC(=O)/C=C/c2ccccc2)n(-c2ccccc2)c(=S)n(-c2ccccc2)c1=O | > 100 µM | –
40 | COC1(OC)C2(Cl)CCC1(Cl)C(OC(C)=O)C2 (stereo unspecified) | > 100 µM | –
41 | O=C1NC(Nc2cccc(Cl)c2)=N/C1=C\c1ccc(Cl)c(Cl)c1 | 21.8 µM | –
42 | CCCCCCCCCCCCCCCCCc1cccc(OCOCCOC)c1CO | > 100 µM | –
43 | CC1=C2C3=C(C)C(=O)C(C)(C)CC[C@@]3(C)[C@]2(C)CCC(C)(C)C1=O | > 100 µM | –
